# Results: ChEMBL document CHEMBL4359901, “Cyclic enaminone as new chemotype for selective cyclooxygenase-2 inhibitory, anti-inflammatory, and analgesic activities” (Eur J Med Chem, 2019)
# Tested on: Rattus norvegicus
# Test: Antiinflammatory activity in Sprague-Dawley rat model of carrageenan-induced thermal hyperalgesia assessed as paw withdrawal latency pressure at 50 mg/kg, po administered 1 hr prior to carrageenan challenge and measured after 3 hrs by Von-frey test (reference value: 31.65 +/- 3.33 g)
# Format: functional
structure (smiles),measurement,value
CC(=O)N(C1=CC(=O)CCC1)c1ccc(Cl)cc1,Activity,166.86 g
